Experimental data: patent US6756210B2, “Linoleic acid diol and glucuronide conjugate levels as diagnostic markers of disorders of abnormal regulation of cytochrome P450 metabolism of unsaturated fatty acids” (The Regents of the University of California, priority 2001, dated 2004)
Read-outs that look alike come from different tables or passages of the source.

Key:
Human sEH (HsEH) = target: T1, Human sEH (HsEH) (Homo sapiens, UniProt P34913); assay: Inhibition of recombinant human sEH (HsEH); type: biochemical; conditions: Table 1; HsEH 0.26 μM
T1 sequence (P34913 1-555): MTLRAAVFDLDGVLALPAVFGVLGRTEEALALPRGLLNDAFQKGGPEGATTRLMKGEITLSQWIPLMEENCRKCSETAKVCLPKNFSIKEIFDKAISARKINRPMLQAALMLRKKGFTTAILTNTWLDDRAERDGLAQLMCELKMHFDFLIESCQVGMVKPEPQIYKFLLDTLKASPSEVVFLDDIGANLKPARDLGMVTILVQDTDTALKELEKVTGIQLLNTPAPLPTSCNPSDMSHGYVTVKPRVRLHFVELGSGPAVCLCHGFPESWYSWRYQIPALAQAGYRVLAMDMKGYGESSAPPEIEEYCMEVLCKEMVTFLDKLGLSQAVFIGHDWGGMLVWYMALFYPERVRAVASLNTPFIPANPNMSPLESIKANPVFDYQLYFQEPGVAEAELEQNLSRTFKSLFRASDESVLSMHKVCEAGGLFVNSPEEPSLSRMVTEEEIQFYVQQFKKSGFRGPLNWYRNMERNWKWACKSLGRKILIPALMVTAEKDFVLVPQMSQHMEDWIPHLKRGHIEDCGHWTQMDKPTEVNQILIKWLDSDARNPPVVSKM

[1] = target: T2, recombinant mouse sEH (MsEH) (Mus musculus, UniProt P34914); assay: Inhibition of recombinant mouse sEH (MsEH); type: biochemical
T2 sequence (P34914 1-554): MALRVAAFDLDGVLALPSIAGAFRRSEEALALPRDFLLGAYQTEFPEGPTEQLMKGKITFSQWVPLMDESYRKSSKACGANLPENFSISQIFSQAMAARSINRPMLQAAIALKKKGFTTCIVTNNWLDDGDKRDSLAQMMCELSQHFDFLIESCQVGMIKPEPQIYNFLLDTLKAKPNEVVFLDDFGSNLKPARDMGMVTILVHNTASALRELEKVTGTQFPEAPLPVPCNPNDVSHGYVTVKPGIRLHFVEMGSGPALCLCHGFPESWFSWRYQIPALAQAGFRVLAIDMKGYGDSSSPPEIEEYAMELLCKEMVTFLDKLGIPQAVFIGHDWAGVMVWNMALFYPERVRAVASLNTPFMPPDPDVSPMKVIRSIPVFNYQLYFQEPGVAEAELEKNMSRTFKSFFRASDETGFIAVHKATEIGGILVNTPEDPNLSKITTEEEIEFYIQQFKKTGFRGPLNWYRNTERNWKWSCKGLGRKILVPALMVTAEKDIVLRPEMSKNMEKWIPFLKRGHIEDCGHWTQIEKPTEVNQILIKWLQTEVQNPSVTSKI

[2] = Table 1, MsEH 0.13 μM, read-out: Mouse sEH IC50

| Structure (SMILES) | IC50 (Human sEH (HsEH)) [µM] | IC50 [1, 2] [µM] | IC50 [1] [µM] |
| --- | --- | --- | --- |
| O=C(NCC1CCCCC1)Nc1ccccc1 [compound 176] | 0.53 ± 0.03 | 0.06 ± 0.01 | – |
| CCCCCCNC(=O)Nc1cccc(Cl)c1 [compound 178] | 0.25 ± 0.01 | 0.31 ± 0.01 | – |
| O=C(NCC1CCCCC1)Nc1cccc(Cl)c1 [compound 179] | 0.1 ± 0.01 | 0.06 ± 0.01 | – |
| CC(C)c1ccc(NC(=O)NCC2CCCCC2)cc1 [compound 180] | 0.1 ± 0.01 | 0.06 ± 0.01 | – |
| CCCCCCCCNC(=O)NC1CCC1 [compound 181] | 1.71 ± 0.23 | 0.52 ± 0.02 | – |
| CCCCCCCCNC(=O)NC(C)C [compound 183] | 5.9 ± 0.3 | 1.06 ± 0.07 | – |
| O=C(CC1CCCCC1)NC1CCCCC1 [compound 187] | 0.42 ± 0.03 | 0.05 ± 0.01 | – |
| O=C(NCc1ccncc1)NC1CCCCC1 [compound 188] | 2.5 ± 0.03 | 0.73 ± 0.08 | – |
| CCCNC(=O)NC1CCCCCCCCCCC1 [compound 189] | 1 ± 0.2 | 0.8 ± 0.03 | – |
| O=C(NCc1ccc(Cl)cc1)NC1CCCCC1 [compound 193] | 0.19 ± 0.01 | 0.05 ± 0.01 | – |
| O=C(NC1CCCCC1)Oc1ccccc1CO [compound 224] | 0.32 ± 0.08 | – | 0.99 ± 0.02 |
| CC(C)[C@@H]1CC[C@@H](C)C[C@H]1OC(=O)NC1CCCCC1 [compound 225] | 1.05 ± 0.03 | 0.84 ± 0.1 | – |
| CCCCCCCCCCOC(=O)NC [compound 248] | 2.9 ± 0.6 | – | 0.33 ± 0.05 |
| CCCNC(=O)Nc1cccc2ccccc12 [compound 253] | 0.28 ± 0.01 | 0.1 ± 0.02 | – |
| CCNC(=O)OC1CCCCC1 [compound 255] | 2.88 ± 0.04 | – | 0.48 ± 0.07 |
| O=C(NC(=O)c1ccc(Cl)cc1)NC1CCCCC1 [compound 257] | 0.1 ± 0.04 | 0.05 ± 0.01 | – |
| O=C(NC1CCCCC1)OCc1ccc(-c2ccccc2)cc1 [compound 259] | 0.1 ± 0.02 | 0.45 ± 0.09 | – |
| O=C(NC1CCCCC1)OC1C2CC3CC(C2)CC1C3 (centres unmarked) [compound 260] | 0.1 ± 0.01 | 0.06 ± 0.01 | – |
| CC1CCC(C(C)C)C(OC(=O)NC2CCCCC2)C1 (centres unmarked) [compound 261] | 0.12 ± 0.01 | 0.08 ± 0.01 | – |
| O=C(NC1CCCCC1)OCc1cccc2ccccc12 [compound 262] | 0.1 ± 0.02 | 0.05 ± 0.01 | – |
| O=C(NC1CCCCC1)OCc1c2ccccc2cc2ccccc12 [compound 263] | 0.33 ± 0.06 | 3 ± 0.3 | – |
| O=C(NCc1ccccc1)NC1CCCCC1 [compound 270] | 1.9 ± 0.1 | 0.05 ± 0.01 | – |
| O=C(NC1CCCCC1)OCCCCC1CCCCC1 [compound 276] | 0.34 ± 0.02 | 1.1 ± 0.1 | – |
| C=C(C)CCOC(=O)NC1CCCCC1 [compound 277] | 0.22 ± 0.02 | 0.12 ± 0.01 | – |
| O=C(O)CCCCCCCCCCCNC(=O)Nc1ccc2ccccc2c1 [compound 283] | 1.12 ± 0.03 | 0.7 ± 0.2 | – |

| Structure (SMILES) | IC50 (Human sEH (HsEH)) [µM] | IC50 [1, 2] [µM] | IC50 [1] [µM] |
| --- | --- | --- | --- |
| CCCCCCNC(=O)NC1CCCCC1 [compound 286] | 0.07 ± 0.02 | 0.11 ± 0.03 | – |
| CCCCCCNC(=O)Nc1ccc(C(C)C)cc1 [compound 287] | 0.1 ± 0.01 | 0.09 ± 0.01 | – |
| CCCCCCCCCCCCNC(=O)NC1CCCCC1 [compound 297] | 0.1 ± 0.01 | 0.05 ± 0.01 | – |
| O=C(NCc1ccc([N+](=O)[O-])cc1)NC1CCCCC1 [compound 341] | 4.3 ± 0.4 | 2.3 ± 0.3 | – |
| O=C(Nc1ccc(OC(F)(F)F)cc1)NC1CCCCC1 [compound 343] | 0.1 ± 0.01 | 0.05 ± 0.01 | – |
| O=C(NCCCCCCO)NC1CCCCC1 [compound 344] | 2.5 ± 0.08 | 0.05 ± 0.01 | – |
| CCCCCCCCCCCCCNC(=O)NC1CCCCC1 [compound 354] | 0.1 ± 0.01 | 0.05 ± 0.01 | – |
| CC(NC(=O)NC1CCCCC1)C1C2CC3CC(C2)CC1C3 (centres unmarked) [compound 358] | 0.18 ± 0.04 | 0.05 ± 0.01 | – |
| O=C(NCCC1=CCCCC1)NC1CCCCC1 [compound 359] | 0.1 ± 0.01 | 0.05 ± 0.01 | – |
| O=C(NCCC1CCCCC1)NC1CCCCC1 [compound 360] | 0.1 ± 0.01 | 0.05 ± 0.01 | – |
| O=C(NCCc1ccc(Cl)cc1)NC1CCCCC1 [compound 361] | 0.2 ± 0.02 | 0.07 ± 0.02 | – |
| CN(C)c1ccc(NC(=O)NC2CCCCC2)cc1 [compound 362] | 1.5 ± 0.1 | 0.05 ± 0.01 | – |
| O=C(NCC1CCCCC1)C1CCCCC1 [compound 374] | 2.03 ± 0.07 | 0.25 ± 0.01 | – |
| CC(C)(C)CC(C)(C)NC(=O)NC1C2CC3CC(C2)CC1C3 (centres unmarked) [compound 375] | 0.11 ± 0.01 | 0.18 ± 0.01 | – |
| O=C(NCCCN1CCOCC1)NC1CCCCC1 [compound 377] | 17.8 ± 0.7 | 0.7 ± 0.1 | – |
| Nc1ccc(CNC(=O)NC2CCCCC2)cc1 [compound 379] | 1.5 ± 0.1 | 0.05 ± 0.01 | – |
| CCCCCCCCNC(=O)NCCC [compound 380] | 0.68 ± 0.03 | 0.73 ± 0.03 | – |
| O=C(CCCCc1ccccc1)NC1CCCCC1 [compound 381] | 0.68 ± 0.03 | 0.06 ± 0.01 | – |
| COc1ccc(CCNC(=O)NC2CCCCC2)cc1OC [compound 384] | 1 ± 0.2 | 0.05 ± 0.01 | – |
| Nc1ccc(NC(=O)NC2CCCCC2)cc1 [compound 385] | 2.2 ± 0.1 | 0.17 ± 0.02 | – |
| O=C(NC12CC3CC(CC(C3)C1)C2)NC12CC3CC(CC(C3)C1)C2 [compound 411] | 0.1 ± 0.01 | 0.05 ± 0.01 | – |
| O=C(NCC12CC3CC(CC(C3)C1)C2)NC12CC3CC(CC(C3)C1)C2 [compound 412] | 0.1 ± 0.01 | 0.05 ± 0.01 | – |
| O=C(NC1CCCCCCCCCCC1)NC12CC3CC(CC(C3)C1)C2 [compound 413] | 0.1 ± 0.01 | 0.05 ± 0.01 | – |
| O=C(O)CCCCCCCCCCCNC(=O)NC1CCCCC1 [compound 425] | 0.1 ± 0.01 | 0.05 ± 0.01 | – |
| O=C(NC1CCCCC1)NC1C2CC3CC(C2)CC1C3 (centres unmarked) [compound 427] | 0.1 ± 0.01 | 0.05 ± 0.01 | – |

| Structure (SMILES) | IC50 (Human sEH (HsEH)) [µM] | IC50 [1, 2] [µM] | IC50 [1] [µM] |
| --- | --- | --- | --- |
| CC(C)(C)C1CCC(NC(=O)NC2CCCCC2)CC1 (centres unmarked) [compound 428] | 0.1 ± 0.01 | 0.05 ± 0.1 | – |
| CCCCCCCCCNC(=O)NCCC [compound 429] | 1.7 ± 0.4 | 0.38 ± 0.04 | – |
| O=C(NCCCc1ccccc1)Nc1ccccc1 [compound 430] | 0.55 ± 0.03 | 0.21 ± 0.02 | – |
| O=C(NC1CCCCC1)NC1CCCc2ccccc21 (centres unmarked) [compound 434] | 0.1 ± 0.01 | 0.05 ± 0.01 | – |
| Cc1cccc(C)c1NC(=O)NC1CCCCC1 [compound 435] | 0.18 ± 0.01 | 0.05 ± 0.01 | – |
| O=C(NCC1CCCCC1)NC12CC3CC(CC(C3)C1)C2 [compound 437] | 0.1 ± 0.01 | 0.05 ± 0.01 | – |
| O=C(NCCCc1ccccc1)NC12CC3CC(CC(C3)C1)C2 [compound 438] | 0.1 ± 0.01 | 0.05 ± 0.01 | – |
| O=C(NC1CCCCC1)OCCCCc1ccc([N+](=O)[O-])cc1 [compound 460] | 0.18 ± 0.01 | 0.1 ± 0.02 | – |
| O=C(NCCc1cnc[nH]1)NC1CCCCC1 [compound 461] | 0.55 ± 0.02 | 0.42 ± 0.01 | – |
| O=C(NCCNc1ccccc1)NC1CCCCC1 [compound 463] | 8.3 ± 0.4 | 0.9 ± 0.07 | – |
| O=C(NCCc1ccccc1)NCc1ccccc1 [compound 470] | 7.6 ± 0.1 | 0.59 ± 0.08 | – |
| O=C(NCCC1=CCCCC1)NCc1ccccc1 [compound 471] | 2.2 ± 0.1 | 0.25 ± 0.03 | – |
| CCCCCCCCCNC(=O)NC1CCCCC1 [compound 473] | 0.1 ± 0.01 | 0.05 ± 0.01 | – |
| CCCCCCCCCCCCCCNC(=O)NC1CCCCC1 [compound 477] | 0.24 ± 0.01 | 0.11 ± 0.01 | – |
| CCCCCCCCCCCCNC(=O)NCC(C)C [compound 478] | 0.26 ± 0.02 | 0.05 ± 0.01 | – |
| CCC(C)NC(=O)NC1CCCCC1 (centres unmarked) [compound 479] | 5 ± 0.1 | 0.6 ± 0.06 | – |
| CCCCCCc1ccc(NC(=O)NC2CCCCC2)cc1 [compound 501] | 0.16 ± 0.01 | 0.05 ± 0.01 | – |
| CCCCCCCCCCCCNC(=O)NC1CCC1 [compound 504] | 23 ± 4 | 0.8 ± 0.1 | – |
| CCCCCCCNC(=O)NC1CCCCC1 [compound 508] | 0.1 ± 0.01 | 0.05 ± 0.01 | – |
| CCCCCNC(=O)NC1CCCCC1 [compound 509] | 0.92 ± 0.08 | 0.06 ± 0.01 | – |
| CCCCCCCCCCCCNC(=O)NCCCC [compound 531] | 0.64 ± 0.03 | 0.14 ± 0.02 | – |
| O=C(Nc1nnn[nH]1)NC1CCCCC1 [compound 533] | 0.1 ± 0.01 | 0.05 ± 0.1 | – |
| CC1CCC(NC(=O)NC2CCCCC2)CC1 (centres unmarked) [compound 538] | 0.1 ± 0.01 | 0.05 ± 0.01 | – |
